From patent publication US20240360139A1, “BLOOD BRAIN BARRIER PENETRATING SELECTIVE INHIBITORS OF ROCK2 PROTEIN KINASES AND USES THEREOF” (GENOSCO Inc., priority 2023, published 2024)
Counter-ions that a name gives are not always drawn.

Columns and labels:
[1] = target: T1, Recombinant ROCK1 (amino acids 1-477) (Homo sapiens, UniProt Q13464); test: ROCK inhibition assay, LANCE Ultra TR-FRET (ROCK1); format: biochemical; settings: 1 mM of ATP
T1 construct: Recombinant ROCK1 (amino acids 1-477)
Method: (§1) Kinase IC50 was determined through an in vitro assay based on LANCE Ultra TR-FRET (Time-Resolved Fluorescence Resonance Energy Transfer) homogeneous technologies method 5 (Perkin Elmer). Recombinant ROCK1 (amino acids 1-477) and ROCK2 (amino acids 5-554) proteins were purchased from Carna Biosciences and SignalChem. Compound activities were measured by Envision and IC50s were calculated. The assays were performed in white LUMITRAC™ 200 96 well half-area microplates from Greiner Bio-One. The kinase reaction buffer consisted of 50 mM HEPES pH 7.5, 1 mM EGTA, 10 mM MgCl2, 2 mM DTT and 0.01% 10 Tween-20. Kinases were incubated with 50 nM (ULight-CREBtide) substrate in the presence of 1 mM (ROCK1) or 1 mM (ROCK2) of ATP. The kinase reaction was carried out for 1 hour before addition of a stopping buffer to a final of 10 mM EDTA and 0.6 nM of LANCE Ultra Europium anti-phospho-CREB (Ser133) antibody (PerkinElmer TRF0200) in LANCE detection buffer. All assay incubations were performed at room temperature, and the microplates were sealed with polyester film during that time. The reaction was incubated for 1 hour, and the signal was read in Envision in TR-FRET mode (excitation at 320 nm and emission at 615/665 nm).
(§2) As used herein, a way to describe potency of inhibitory activity (nM) is a value of inhibitory activity at 50% (IC50).

[2] = target: T2, Recombinant ROCK2 (amino acids 5-554) (Homo sapiens, UniProt O75116); test: ROCK inhibition assay, LANCE Ultra TR-FRET (ROCK2); format: biochemical; settings: 1 mM of ATP
T2 construct: ROCK2 (amino acids 5-554)
Method: as §1, §2

T2 sequence (O75116 5-554): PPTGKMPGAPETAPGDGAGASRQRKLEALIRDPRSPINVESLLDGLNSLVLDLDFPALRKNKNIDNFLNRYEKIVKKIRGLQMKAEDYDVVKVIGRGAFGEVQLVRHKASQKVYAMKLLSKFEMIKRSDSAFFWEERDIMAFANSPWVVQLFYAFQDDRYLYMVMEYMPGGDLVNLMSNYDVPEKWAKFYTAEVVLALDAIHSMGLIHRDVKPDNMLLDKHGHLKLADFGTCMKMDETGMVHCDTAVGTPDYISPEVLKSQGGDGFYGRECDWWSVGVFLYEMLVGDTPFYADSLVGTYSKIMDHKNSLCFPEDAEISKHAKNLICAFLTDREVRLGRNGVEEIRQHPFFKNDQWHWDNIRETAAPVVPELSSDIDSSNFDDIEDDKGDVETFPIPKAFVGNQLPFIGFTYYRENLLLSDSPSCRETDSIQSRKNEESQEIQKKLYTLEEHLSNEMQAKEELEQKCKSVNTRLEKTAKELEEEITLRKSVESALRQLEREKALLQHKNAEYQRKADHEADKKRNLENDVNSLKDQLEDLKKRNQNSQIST
T1 sequence (Q13464 1-477): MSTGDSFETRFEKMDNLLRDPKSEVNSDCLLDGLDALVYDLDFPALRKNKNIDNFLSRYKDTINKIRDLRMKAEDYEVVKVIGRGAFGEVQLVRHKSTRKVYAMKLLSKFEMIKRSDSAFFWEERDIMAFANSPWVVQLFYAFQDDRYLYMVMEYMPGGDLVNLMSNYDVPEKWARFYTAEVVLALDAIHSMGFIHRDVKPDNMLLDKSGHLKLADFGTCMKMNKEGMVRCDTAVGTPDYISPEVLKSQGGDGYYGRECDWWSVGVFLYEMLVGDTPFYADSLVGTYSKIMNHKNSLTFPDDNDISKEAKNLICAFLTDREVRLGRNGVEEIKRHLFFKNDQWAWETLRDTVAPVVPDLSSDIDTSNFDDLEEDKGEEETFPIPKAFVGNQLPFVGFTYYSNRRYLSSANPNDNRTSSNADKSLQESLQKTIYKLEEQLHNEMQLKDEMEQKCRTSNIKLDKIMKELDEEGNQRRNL

Row | SMILES | IC50 [1] [nM] | IC50 [2] [nM]
1 | CN(C)CCn1nc(C(=O)C2CCOc3ccc(F)cc3C2)c2ccc(-c3c[nH]nc3Cl)cc21 (stereo not drawn) [Compound 5-63] | > 501 | > 501
2 | C[C@H](N)Cn1cc(C(=O)C2COc3ccc(Cl)cc3C2)c2ccc(-c3c[nH]nc3Cl)cc21 (stereo partly drawn) [Compound 2-7] | < 20 | < 20
3 | CCN(CC)CCn1cc(C(=O)C2COc3ccc(Cl)cc3C2)c2ccc(-c3cn[nH]c3OC)cc21 (stereo not drawn) [Compound 3-13] | > 501 | < 20
4 | CNCCn1cc(C(=O)C2COc3ccc(Cl)cc3C2)c2ccc(-c3cn[nH]c3Cl)cc21 (stereo not drawn) [Compound 3-9] | > 501 | 201 to 500
5 | COc1n[nH]cc1-c1ccc2c(C(=O)C3COc4ccc(Cl)cc4C3)cn(CCN3CCC3)c2c1 (stereo not drawn) [Compound 3-4, [1-[2-(azetidin-1-yl)ethyl]-6-(3-methoxy-1H-pyrazol-4-yl)indol-3-yl]-(6-chlorochroman-3-yl)methanone] | > 501 | 201 to 500
6 | CN(C)CCn1cc(C(=O)C2COc3ccc(F)cc3C2)c2ccc(-c3c[nH]nc3Cl)cc21 (stereo not drawn) [Compound 5-19] | > 501 | 21 to 200
7 | CN(C)CCn1cc(C(=O)C2COc3ccccc3O2)c2ccc(-c3cn[nH]c3)cc21 (stereo not drawn) [Compound 5-2] | > 501 | 201 to 500
8 | COc1ccc2c(c1)C[C@@H](C(=O)c1cn(CCN(C)C)c3cc(-c4c[nH]nc4Cl)ccc13)CO2 [Compound 5-8] | > 501 | < 20
9 | COc1n[nH]cc1-c1ccc2c(C(=O)[C@@H]3COc4ccc(Cl)cc4C3)nn(CCN(C)C)c2c1 [Compound 5-46] | 201 to 500 | < 20
10 | COc1ccc2c(c1)CC(C(=O)c1cn(CC3(N)CC3)c3cc(-c4cn[nH]c4F)ccc13)CO2 (stereo not drawn) [Compound 4-6] | 21 to 200 | < 20
11 | COc1ccc2c(c1)CC(C(=O)c1cn(C[C@H]3CCN3)c3cc(-c4cn[nH]c4F)ccc13)CO2 (stereo partly drawn) [Compound 1-38] | 201 to 500 | < 20
12 | COc1n[nH]cc1-c1ccc2c(C(=O)C3COc4ccc(Cl)cc4C3)cn(C[C@@H](C)N)c2c1 (stereo partly drawn) [Compound 2-6] | 21 to 200 | < 20
13 | CN(C)CCn1cc(C(=O)C2COc3ccc(Cl)cc3C2)c2ccc(-c3cn[nH]c3F)nc21 (stereo not drawn) [Compound 1-16] | > 501 | > 501
14 | CCN1CC[C@@H]1Cn1cc(C(=O)C2COc3ccc(OC)cc3C2)c2ccc(-c3cn[nH]c3OC)cc21 (stereo partly drawn) [Compound 1-56] | > 501 | 21 to 200
15 | CCN(C)CCn1cc(C(=O)C2COc3ccc(OC)cc3C2)c2ccc(-c3cn[nH]c3F)cc21 (stereo not drawn) [Compound 3-30] | 201 to 500 | 21 to 200
16 | COc1ccc2c(c1)CC(C(=O)c1cn(C[C@@H]3CCN3C)c3cc(-c4cn[nH]c4F)ccc13)CO2 (stereo partly drawn) [Compound 1-48] | > 501 | 21 to 200
17 | CCN(C)CCn1cc(C(=O)[C@@H]2COc3ccc(OC)cc3C2)c2ccc(-c3cn[nH]c3Cl)cc21 [Compound 3-28] | > 501 | 21 to 200
18 | COc1ccc2c(c1)CC(C(=O)c1nn(CCN(C)C)c3cc(-c4c[nH]nc4OC)ccc13)CCO2 (stereo not drawn) [Compound 5-64] | > 501 | > 501
19 | CN(C)CCn1cc(C(=O)C2COc3ccc(F)cc3C2)c2ccc(-c3cn[nH]c3F)cc21 (stereo not drawn) [Compound 1-23] | > 501 | 21 to 200
20 | COc1[nH]ncc1-c1cc2c(cn1)c(C(=O)C1COc3ccc(Cl)cc3C1)cn2CCN(C)C (stereo not drawn) [Compound 1-2, (6-chlorochroman-3-yl)(1-(2-(dimethylamino)ethyl)-6-(5-methoxy-1H-pyrazol-4-yl)-1H-pyrrolo[3,2-c]pyridin-3-yl)methanone dihydrochloride] | > 501 | 21 to 200
21 | NCCn1cc(C(=O)C2COc3ccc(F)cc3C2)c2cnc(-c3c[nH]nc3Cl)cc21 (stereo not drawn) [Compound 2-3] | 21 to 200 | < 20
22 | COc1[nH]ncc1-c1cc2c(cn1)c(C(=O)C1COc3ccc(Cl)cc3C1)cn2CCN(C)C (stereo not drawn) [Compound 1-1, (6-chlorochroman-3-yl)-[1-[2-(dimethylamino)ethyl]-6-(3-methoxy-1H-pyrazol-4-yl)pyrrolo[3,2-c]pyridin-3-yl]methanone] | > 501 | 21 to 200
23 | COc1[nH]ncc1-c1ccc2c(C(=O)C3COc4ccc(F)cc4C3)cn(CCN(C)C)c2c1 (stereo not drawn) [Compound 5-37] | > 501 | < 20
24 | CCN(C)CCn1cc(C(=O)C2COc3ccc(OC)cc3C2)c2ccc(-c3cn[nH]c3Cl)cc21 (stereo not drawn) [Compound 3-25] | 201 to 500 | < 20
25 | COc1ccc2c(c1)CC(C(=O)c1cn(CCN(C)C)c3cc(-c4c[nH]nc4Cl)ncc13)CO2 (stereo not drawn) [Compound 1-14] | > 501 | 201 to 500
26 | CN(C)CCn1nc(C(=O)C2COc3ccccc3C2)c2ccc(-c3c[nH]nc3C(F)(F)F)cc21 (stereo not drawn) [Compound 5-54] | > 501 | 201 to 500

Row | SMILES | IC50 [1] [nM] | IC50 [2] [nM]
27 | COc1n[nH]cc1-c1ccc2c(C(=O)C3COc4ccc(Cl)cc4C3)nn(CCN(C)C)c2c1 (stereo not drawn) [Compound 5-45] | > 501 | < 20
28 | COc1ccc2c(c1)CC(C(=O)c1cn(C[C@H]3CCN3C)c3cc(-c4cn[nH]c4F)ccc13)CO2 (stereo partly drawn) [Compound 1-45] | > 501 | 21 to 200
29 | O=C(c1cn(C[C@H]2CCN2)c2cc(-c3cn[nH]c3Cl)ccc12)C1COc2ccc(Cl)cc2C1 (stereo partly drawn) [Compound 1-39] | > 501 | 21 to 200
30 | COc1n[nH]cc1-c1ccc2c(C(=O)C3COc4ccc(Cl)cc4O3)nn(CCN(C)C)c2c1 (stereo not drawn) [Compound 5-59] | > 501 | 21 to 200
31 | O=C(c1cn(CC2CNC2)c2cc(-c3cn[nH]c3Cl)ccc12)C1COc2ccc(Cl)cc2C1 (stereo not drawn) [Compound 1-21] | < 20 | < 20
32 | CN(C)CCn1cc(C(=O)C2COc3ccccc3O2)c2ccc(-c3c[nH]nc3Cl)cc21 (stereo not drawn) [Compound 5-18] | 201 to 500 | 201 to 500
33 | NC1(Cn2cc(C(=O)C3COc4ccc(Cl)cc4C3)c3ccc(-c4cn[nH]c4F)cc32)CC1 (stereo not drawn) [Compound 4-5] | < 20 | < 20
34 | COc1ccc2c(c1)CC(C(=O)c1cn(C[C@H]3CCN3)c3cc(-c4cn[nH]c4OC)ccc13)CO2 (stereo partly drawn) [Compound 1-42] | 201 to 500 | < 20
35 | COc1[nH]ncc1-c1ccc2c(C(=O)C3COc4ccc(Cl)cc4O3)cn(CCN(C)C)c2c1 (stereo not drawn) [Compound 5-42] | > 501 | 201 to 500
36 | CCN1CC[C@@H]1Cn1cc(C(=O)C2COc3ccc(OC)cc3C2)c2ccc(-c3cn[nH]c3Cl)cc21 (stereo partly drawn) [Compound 1-58] | > 501 | 21 to 200
37 | COc1[nH]ncc1-c1ccc2c(C(=O)[C@@H]3COc4ccc(F)cc4C3)cn(CCN(C)C)c2c1 [Compound 5-38] | > 501 | < 20
38 | COc1ccc2c(c1)CC(C(=O)c1nn(CCN(C)C)c3cc(-c4c[nH]nc4Cl)ccc13)CCO2 (stereo not drawn) [Compound 5-65] | > 501 | > 501
39 | COc1[nH]ncc1-c1ccc2c(C(=O)C3COc4ccc(Cl)cc4C3)cn(C3CNC3)c2c1 (stereo not drawn) [Compound 1-18] | > 501 | 21 to 200
40 | COc1n[nH]cc1-c1ccc2c(C(=O)[C@H]3COc4ccc(Cl)cc4C3)cn(CCCN(C)C)c2c1 [Compound 3-8] | > 501 | 201 to 500
41 | O=C(c1cn(C[C@H]2CCN2)c2cc(-c3cn[nH]c3F)ccc12)C1COc2ccc(Cl)cc2C1 (stereo partly drawn) [Compound 1-40] | > 501 | < 20
42 | CN(C)CCn1cc(C(=O)C2COc3ccc(Cl)cc3C2)c2ccc(-c3c[nH]nc3Cl)cc21 (stereo not drawn) [Compound 1-17] | > 501 | 21 to 200
43 | COc1[nH]ncc1-c1ccc2c(C(=O)C3COc4ccc(Cl)cc4C3)cn(CC3CN(C)C3)c2c1 (stereo not drawn) [Compound 1-44] | > 501 | < 20
44 | CN(C)CCn1nc(C(=O)C2COc3ccc(Cl)cc3O2)c2ccc(-c3c[nH]nc3Cl)cc21 (stereo not drawn) [Compound 5-61] | > 501 | 21 to 200
45 | O=C(c1cn(CC2CCN2)c2cc(-c3cn[nH]c3Cl)ccc12)C1COc2ccc(Cl)cc2C1 (stereo not drawn) [Compound 1-31] | > 501 | 21 to 200
46 | CN(C)CCn1cc(C(=O)C2COc3ccc(Cl)cc3C2)c2cnc(-c3cn[nH]c3Cl)nc21 (stereo not drawn) [Compound 1-33] | > 501 | > 501
47 | CN(C)CCn1cc(C(=O)C2COc3ccc(Cl)cc3C2)c2cnc(-c3c[nH]nc3Cl)cc21 (stereo not drawn) [Compound 1-11] | > 501 | > 501
48 | NC1(Cn2cc(C(=O)C3COc4ccc(F)cc4C3)c3ccc(-c4cn[nH]c4Cl)cc32)CC1 (stereo not drawn) [Compound 4-4] | 21 to 200 | < 20
49 | C[C@H](Cn1cc(C(=O)[C@@H]2COc3ccc(Cl)cc3C2)c2ccc(-c3cn[nH]c3F)cc21)N(C)C [Compound 2-17] | 201 to 500 | < 20
50 | NCCn1cc(C(=O)C2COc3ccc(F)cc3C2)c2ccc(-c3c[nH]nc3Cl)cc21 (stereo not drawn) [Compound 2-4] | < 20 | < 20
51 | CCN(CC)CCn1cc(C(=O)C2COc3ccc(OC)cc3C2)c2ccc(-c3cn[nH]c3F)cc21 (stereo not drawn) [Compound 3-22] | 201 to 500 | < 20
